Laboratory results taken from patent US7109244B2, “Compositions and methods comprising long-chain, straight-chain 2-amino-3-hydroxyalkanes” (priority 1997, dated 2006).
Where two headings read alike, the source gives them in different places.

Columns and labels:
[1] = tested on: Nippostrongylus brasiliensis; settings: cited from earlier work
[2] = tested on: Gram-positive and Gram-negative bacteria and fungi; settings: cited from earlier work
[3] = tested on: L1210 murine lymphocytic leukemia cells; assay: L1210 cytotoxicity assay (inhibition of growth); type: cell-based
Experimental: The morphological effect was usually measured 30–35 h after the start of the assay and again about 24 h later, while the cytotoxicity was determined when the number of cells in the controls reached approximately 8000, usually in 3 days after the assay was begun. It should be noted that the pointed cells were live cells and that they were counted as such for the cytotoxicity reading. […] All morphologically-changed cells were counted in the pointed cell percentage.
Cytotoxicity assays against L1210 murine lymphocytic leukemia cells were performed by dissolving the samples in methanol and/or hexane were applied to the dry assay wells and the solvent was allowed to evaporate. Cells (1000) were added in minimum essential medium (MEM, 1 ml) and incubated 37° C. Inhibition of growth was recorded as the estimated percentage of living cells in sample wells versus that in control wells.

[4] = tested on: L1210 murine lymphocytic leukemia cells; assay: L1210 morphological change (pointed cells); type: cell-based; settings: for % Pointed Cells 1st: 27 h
Experimental: Referring to FIG. 1, in the L1210 assay some of the cells changed from being spherical (FIG. 1A) to ovoid with long points approximately […] apart (FIG. 1B). Several other forms have also been observed in assays of these extracts, including cells with points not […] apart (FIG. 1C), cells with more than two points (FIG. 1D), cells with a bulge (FIG. 1E) and cells with a bulge replacing one of the points (FIG. 1F). However, the form with two sharp, opposing points was by far the predominant and characteristic one observed. This type of morphological change had not previously been observed during the screening of over 1000 marine extracts.
As discussed above, the spisulosines caused a distinct morphological change in L1210 leukemia cells, in addition to cytotoxicity. This bioactivity, which was recorded as the percentage of living cells in which altered morphology was observed, could be observed sometimes as early as 13 h after the start of the assay and reached a maximum at 50–60 h, after which it decreased. […] The morphological effect was usually measured 30–35 h after the start of the assay and again about 24 h later, while the cytotoxicity was determined when the number of cells in the controls reached approximately 8000, usually in 3 days after the assay was begun. It should be noted that the pointed cells were live cells and that they were counted as such for the cytotoxicity reading. Also, assays in which 100% cytotoxicity was recorded may still have contained live cells (<0.5%) which may or may not have been pointed. All morphologically-changed cells were counted in the pointed cell percentage.
Morphologically-changed cells (FIGS. 1A–1F) were counted as living cells when determining the percent inhibition of growth. Morphological changes were assessed throughout the assay period. The percentage of pointed cells was determined by counting the number of altered cells in approximately 60 living cells. This percentage varied with the length of time the assay had been running. It generally reached its maximum about 50 hours after the start of the assay, but pointed cells could be observed as early as 13 hours after the start of the assay and could usually still be seen when the percent growth inhibition was measured. The percentages of pointed cells were often counted both after about 35 and after 55 hours. The time that this measurement was made is indicated with the data.

[5] = tested on: Chinese hamster ovary (CHO) cells; settings: cited from earlier work
[6] = tested on: HL-60 cells; settings: cells treated with phorbol 12-myristate-13-acetate; cited from earlier work
[7] = tested on: protein kinase C; settings: competing with diacylglycerol for the binding site; cited from earlier work
[8] = tested on: Vero cells; assay: effect of LPA on the action of spisulosine 285 in Vero cells (Example D); type: cell-based
From the text: LPA is known to increase the level of stress fibers in cells by activation of the Rho protein. The effect of LPA on cells treated with spisulosine 285, and untreated cells was examined. […]

C=CCCCCCCCCCC(O)C(C)N (centres unmarked) [Xestaminol A]
antihelminthic activity [1]: antihelminthic activity
activity against bacteria and fungi [2]: weak activity

CCCCCCCCCCCCCCC[C@H](O)[C@H](C)N [Compound 154, (2S,3S)-2-amino-3-octadecanol]
inhibition at 0.1 µg/mL ([3]; Mus musculus, L1210, 0.1 μg/ml, read-out: % Inhibitiion): 0%
inhibition at […] ([3]; Mus musculus, L1210, 0.25 μg/ml, read-out: % Inhibitiion): 0%
inhibition at 0.5 µg/mL ([3]; Mus musculus, L1210, 0.5 μg/ml, read-out: % Inhibitiion): 0%
inhibition at 1 µg/mL ([3]; Mus musculus, L1210, 1 μg/ml, read-out: % Inhibitiion): 63%
inhibition at […] ([3]; Mus musculus, L1210, 2.5 μg/ml, read-out: % Inhibitiion): 100%
inhibition at 5 µg/mL ([3]; Mus musculus, L1210, 5 μg/ml, read-out: % Inhibitiion): 100%
% Pointed Cells 1st ([4]; 0.1 μg/ml): 0%
% Pointed Cells 1st ([4]; 0.5 μg/ml): 0%
% Pointed Cells 1st ([4]; 1 μg/ml): 0%
% Pointed Cells 1st ([4]; 5 μg/ml): 0%

CCCCCCCCCCCCCCC[C@@H](O)[C@@H](N)CO [Compound 164, dihydrosphingosine]
cytotoxicity [5]: did not affect the cytotoxicity

CCCCCCCCCCCCC/C=C/[C@@H](O)[C@@H](N)COP(=O)(O)OCC[N+](C)(C)C [Compound 163, reference compound]
inhibition at 10 µg/mL ([3]; Mus musculus, L1210, 10 μg/ml): 38%
inhibition at 25 µg/mL ([3]; Mus musculus, L1210, 25 μg/ml): 50%
inhibition at 50 µg/mL ([3]; Mus musculus, L1210, 50 μg/ml): 88%
% Pointed cells ([4]; 10 μg/ml): 0%
% Pointed cells ([4]; 25 μg/ml): 0%
% Pointed cells ([4]; 50 μg/ml): 0%

CCCCCCCCCCCCC/C=C/[C@@H](O)[C@@H](N)CO (relative stereo) [sphingosine, D-trans-erythro-sphingosine, reference compound]
L1210 cytotoxicity (in words) [3]: moderate cytotoxicity
% Inhibition ([3]; 0.1 μg/ml): 0%
% Inhibition ([3]; 0.5 μg/ml): 31%
% Inhibition ([3]; 1 μg/ml): 75%
% Inhibition ([3]; 5 μg/ml): 100%
cytotoxicity [5]: cytotoxic
L1210 morphological alteration / pointed cell activity (in words) [4]: no morphological effect
% Pointed cells ([4]; 0.1 μg/ml): 0%
% Pointed cells ([4]; 0.5 μg/ml): 0%
% Pointed cells ([4]; 1 μg/ml): 0%
% Pointed cells ([4]; 5 μg/ml): 0%
differentiation of HL-60 cells [6]: inhibit the differentiation
inhibition of protein kinase C [7]: potent inhibitor

CCCCCCCCCCCCCCCCCCN [Compound 131, stearylamine, reference compound]
L1210 cytotoxicity (in words) [3]: moderate cytotoxicity
inhibition at 0.1 µg/mL ([3]; Mus musculus, L1210, 0.1 μg/ml, read-out: % Inhibition): 0%
inhibition at […] ([3]; Mus musculus, L1210, 0.25 μg/ml, read-out: % Inhibition): 0%
inhibition at 0.5 µg/mL ([3]; Mus musculus, L1210, 0.5 μg/ml, read-out: % Inhibition): 0%
inhibition at 1 µg/mL ([3]; Mus musculus, L1210, 1 μg/ml, read-out: % Inhibition): 19%
inhibition at […] ([3]; Mus musculus, L1210, 2.5 μg/ml, read-out: % Inhibition): 96%
inhibition at 5 µg/mL ([3]; Mus musculus, L1210, 5 μg/ml, read-out: % Inhibition): 99%
cytotoxicity [5]: cytotoxic
L1210 morphological alteration / pointed cell activity (in words) [4]: no morphological effect
% Pointed cells ([4]; 0.1 μg/ml): 0%
% Pointed cells ([4]; 0.5 μg/ml): 0%
% Pointed cells ([4]; 1 μg/ml): 0%
% Pointed cells ([4]; 5 μg/ml): 0%

Lysophosphatidic acid [LPA]
effect of LPA added prior to spisulosine on morphology ([8]; 10 mM LPA 2 hours, then 0.5 mM spisulosine 285 for 18 hours): prevents the morphological change promoted by spisulosine
level of actin ([8]; 10 mM LPA, 2 hours): increasing the level of actin
